# From article PMC11288027, “Exploring novel microbial metabolites and drugs for inhibiting Clostridioides difficile” (mSphere, 2024)
# Several values for one entry are separate records, joined by “and”; a condition that tells them apart may be missing. Identical values can stand only once. Counter-ions that a name gives are not always drawn. Like-named read-outs stand apart in the source and are kept apart here.
# Tests used:
# [1] = system: C. difficile clinical isolates; assay: MIC against a panel of 20 C. difficile clinical isolates (broth microdilution); type: cell-based, Clostridioides difficile; conditions: Clostridioides difficile
# B. fragilis = assay: MIC against human gut microbiota; type: cell-based, Bacteroides fragilis; conditions: for MIC: Bacteroides fragilis, read-out: minimum inhibitory concentration (MIC)
# B. dorei = assay: MIC against human gut microbiota; type: cell-based, Bacteroides dorei; conditions: Phocaeicola dorei, read-out: minimum inhibitory concentration (MIC)
# Bif. breve = assay: MIC against human gut microbiota; type: cell-based, Bifidobacterium breve; conditions: Bifidobacterium breve
# Bif. angulatum = assay: MIC against human gut microbiota; type: cell-based, Bifidobacterium angulatum; conditions: Bifidobacterium angulatum, read-out: minimum inhibitory concentration (MIC)
# Bif. adolescentis = assay: MIC against human gut microbiota; type: cell-based, Bifidobacterium adolescentis; conditions: Bifidobacterium adolescentis, read-out: minimum inhibitory concentration (MIC)
# Bif. longum = assay: MIC against human gut microbiota; type: cell-based, Bifidobacterium longum; conditions: Bifidobacterium longum
# E. faecium = assay: MIC against human gut microbiota; type: cell-based, Enterococcus faecium; conditions: Enterococcus faecium, read-out: minimum inhibitory concentration (MIC)
# E. fecalis = assay: MIC against human gut microbiota; type: cell-based, Enterococcus faecalis; conditions: Enterococcus faecalis, read-out: minimum inhibitory concentration (MIC)
# L. casei = assay: MIC against human gut microbiota; type: cell-based; conditions: Lacticaseibacillus casei
# L. brevis = assay: MIC against human gut microbiota; type: cell-based, Lactobacillus brevis; conditions: Levilactobacillus brevis
# L. rhamanosus = assay: MIC against human gut microbiota; type: cell-based, Lactobacillus rhamnoosus; conditions: Lactobacillus
# [2] = system: Staphylococcus epidermidis; set-up: method as in PMID 26414088; conditions: cited from earlier work
# S. aureus = system: S. aureus; set-up: method as in PMID 26414088; conditions: cited from earlier work
# Acinetobacter baumannii = system: Acinetobacter baumannii; set-up: method as in PMID 26414088; conditions: cited from earlier work
# mice = conditions: administered orally; cited from earlier work
# [3] = system: C. difficile ATCC BAA-1870; assay: Time-kill assay at 5 × MIC; conditions: C. difficile ATCC BAA-1870, ~10^6 CFU/mL, up to 24 h
# [4] = system: C. difficile ATCC BAA-1870; assay: MIC of active hits by broth microdilution; conditions: C. difficile ATCC BAA-1870, 48 h anaerobic; for MIC: Clostridioides difficile, ATCCBAA1870, 48 h
# [5] = system: embryo development in mice; set-up: method as in PMID 19079959; conditions: cited from earlier work
# [6] = B. fragilis HM- 718, BHIS broth, anaerobic
compound,measurement,setting,value
Oc1c(Br)cc(Br)c2cccnc12 [Broxyquinoline],MIC50,"[1]; 48 h, concentration that inhibited 50% of the 20 C. difficile clinical isolates, read-out: MIC50",0.125 µg/mL
same,MIC,"[1]; ATCC630, C. difficile ATCC 630, read-out: minimum inhibitory concentration (MIC)",1 µg/mL
same,MIC,"[1]; ATCC43255, C. difficile ATCC 43255, read-out: minimum inhibitory concentration (MIC)",0.25 µg/mL
same,MIC,"[1]; ATCCBAA1870, C. difficile ATCC BAA-1870 (Ribotype-027), purchased compounds, panel test, read-out: minimum inhibitory concentration (MIC)",0.125 µg/mL
same,MIC,"[1]; C. difficile CD-1 (Ribotype-027), read-out: minimum inhibitory concentration (MIC)",0.25 µg/mL
same,MIC,"[1]; C. difficile CD-6 (Ribotype-027), read-out: minimum inhibitory concentration (MIC)",0.25 µg/mL
same,MIC,"[1]; C. difficile CD-10(Ribotype-027), read-out: minimum inhibitory concentration (MIC)",0.125 µg/mL
same,MIC,"[1]; C. difficile CD-12, read-out: minimum inhibitory concentration (MIC)",0.125 µg/mL
same,MIC,"[1]; C. difficile CD-13, read-out: minimum inhibitory concentration (MIC)",0.03 µg/mL
same,MIC,"[1]; C. difficile CD-15, read-out: minimum inhibitory concentration (MIC)",0.25 µg/mL
same,MIC,"[1]; C. difficile CD-22, read-out: minimum inhibitory concentration (MIC)",0.125 µg/mL
same,MIC,"[1]; C. difficile CD-23, read-out: minimum inhibitory concentration (MIC)",0.125 µg/mL
same,MIC,"[1]; C. difficile CD-24, read-out: minimum inhibitory concentration (MIC)",0.015 µg/mL
same,MIC,"[1]; C. difficile CD-26 (Ribotype-027), read-out: minimum inhibitory concentration (MIC)",0.125 µg/mL
same,MIC,"[1]; C. difficile CD-28, read-out: minimum inhibitory concentration (MIC)",0.06 µg/mL
same,MIC,"[1]; C. difficile CD-29 (Ribotype-027), read-out: minimum inhibitory concentration (MIC)",0.06 µg/mL
same,MIC,"[1]; C. difficile CD-30, read-out: minimum inhibitory concentration (MIC)",0.25 µg/mL
same,MIC,"[1]; C. difficile NR-49302, read-out: minimum inhibitory concentration (MIC)",0.06 µg/mL
same,MIC,"[1]; C. difficile NR-49304, read-out: minimum inhibitory concentration (MIC)",0.03 µg/mL
same,MIC,"[1]; C. difficile NR-49308, read-out: minimum inhibitory concentration (MIC)",0.06 µg/mL
same,MIC,"[1]; C. difficile NR-49319, read-out: minimum inhibitory concentration (MIC)",0.25 µg/mL
same,MIC50,"[1]; concentration that inhibited 50% of the 20 C. difficile clinical isolates, read-out: MIC50",0.125 µg/mL
same,MIC90,"[1]; concentration that inhibited 90% of the 20 C. difficile clinical isolates, read-out: MIC90",0.25 µg/mL
same,MIC,"B. fragilis; B. fragilis HM- 709, BHIS broth, anaerobic",8 µg/mL
same,MIC,B. fragilis; [6],16 µg/mL
same,MIC,"B. dorei; B. dorei HM- 719, BHIS broth, anaerobic",8 µg/mL
same,MIC,"Bif. breve; ATCC15700, Bif. breve ATCC 15700, BHIS broth, anaerobic, read-out: minimum inhibitory concentration (MIC)",> 256 µg/mL
same,MIC,"Bif. angulatum; Bif. angulatum HM- 1189, BHIS broth, anaerobic",8 µg/mL
same,MIC,"Bif. adolescentis; Bif. adolescentis HM- 633, BHIS broth, anaerobic",64 µg/mL
same,MIC,"Bif. longum; Bif. longum HM- 845, BHIS broth, anaerobic, read-out: minimum inhibitory concentration (MIC)",> 256 µg/mL
same,MIC,"Bif. longum; Bif. longum HM- 846, BHIS broth, anaerobic, read-out: minimum inhibitory concentration (MIC)",128 µg/mL
same,MIC,"Bif. longum; Bif. longum HM- 847, BHIS broth, anaerobic, read-out: minimum inhibitory concentration (MIC)",32 µg/mL
same,MIC,"Bif. longum; Bif. longum HM- 848, BHIS broth, anaerobic, read-out: minimum inhibitory concentration (MIC)",64 µg/mL
same,MIC,"E. faecium; E. faecium HM-202, TSB, aerobic",32 µg/mL
same,MIC,"E. fecalis; E. fecalis HM-970, TSB, aerobic",16 µg/mL
same,MIC,"L. casei; ATCC334, L. casei ATCC 334, MRS broth, 5% CO2, read-out: minimum inhibitory concentration (MIC)",32 µg/mL
same,MIC,"L. brevis; ATCC14864, L. brevis ATCC-14864, MRS broth, 5% CO2, read-out: minimum inhibitory concentration (MIC)",64 µg/mL
same,MIC,"L. rhamanosus; ATCC53103, L. rhamanosus ATCC-53103, MRS broth, 5% CO2, read-out: minimum inhibitory concentration (MIC)",> 256 µg/mL
same,MIC,[2],12.5 µM and 4 µg/mL
same,MIC,S. aureus,4 µg/mL
same,MIC,Acinetobacter baumannii,12.5 µM and 4 µg/mL
same,LD50,mice,7400 mg/kg
same,time to eliminate / clear C. difficile,[3],6 h
same,MIC (μM),[4],4 µM
same,MIC,[4],1.21 µg/mL
C[C@H](CCC(=O)O)C[C@H](C)C[C@H](C)C(=O)/C=C(\O)[C@H](C)C[C@H](C)C/C=C/[C@@H](C)[C@@H](O)[C@@H](C)[C@@H](O)C[C@@H]1CC[C@@](C)([C@H]2CC[C@@](C)([C@@H](C)O)O2)O1 [Ionomycin (calcium salt)],MIC50,[1],1 µg/mL
same,MIC90,[1],2 µg/mL
same,MIC50,[1]; 48 h,1 µg/mL
same,MIC,"[1]; ATCC630, read-out: minimum inhibitory concentration (MIC)",0.5 µg/mL
same,MIC,"[1]; ATCC43255, read-out: minimum inhibitory concentration (MIC)",1 µg/mL
same,MIC,"[1]; ATCCBAA1870, read-out: minimum inhibitory concentration (MIC)",1 µg/mL
same,minimum inhibitory concentration (MIC),B. fragilis; [6],>256 µg/mL
same,MIC,B. fragilis,> 256 µg/mL
same,MIC,B. dorei,> 256 µg/mL
same,MIC,"Bif. breve; ATCC15700, read-out: minimum inhibitory concentration (MIC)",> 256 µg/mL
same,MIC,Bif. angulatum,64 µg/mL
same,MIC,Bif. adolescentis,16 µg/mL
same,MIC,"Bif. longum; read-out: minimum inhibitory concentration (MIC), Bif. longum HM- 845, BHIS broth, anaerobic",> 256 µg/mL
same,MIC,"Bif. longum; read-out: minimum inhibitory concentration (MIC), Bif. longum HM- 846, BHIS broth, anaerobic",64 µg/mL
same,MIC,"Bif. longum; read-out: minimum inhibitory concentration (MIC), Bif. longum HM- 847, BHIS broth, anaerobic",128 µg/mL
same,MIC,"Bif. longum; read-out: minimum inhibitory concentration (MIC), Bif. longum HM- 848, BHIS broth, anaerobic",256 µg/mL
same,MIC,E. faecium,32 µg/mL
same,MIC,E. fecalis,16 µg/mL
same,MIC,"L. casei; ATCC334, read-out: minimum inhibitory concentration (MIC)",32 µg/mL
same,MIC,"L. brevis; ATCC14864, read-out: minimum inhibitory concentration (MIC)",≥ 256 µg/mL
same,MIC,"L. rhamanosus; ATCC53103, read-out: minimum inhibitory concentration (MIC)",> 256 µg/mL
same,toxicity on embryo development,[5],no toxicity
same,time to bactericidal effect,[3],8 h
same,time to eliminate / clear C. difficile,[3],12 h
same,MIC (μM),[4],4 µM
same,MIC,[4],2.99 µg/mL
